The series is described as follows: gradient 5% acetonitrile 3 min, to 50% in 2 min, to 85% in 15 min, held 3 min, 100 µL/min. The following applies: column: Zorbax Extend-C18 2.1 x 50 mm; eluents: water / acetonitrile, 0.1% formic acid. Put shortly:
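Retention time was recorded from adduct peaks, which were picked computationally and each inspected manually. Pure standards ran in mixtures of ~100 molecules on HPLC coupled to a quadrupole time-of-flight mass spectrometer, in positive and negative ionization mode, through a Zorbax Extend-C18 column (2.1 × 50 mm, 1.8 μm) at 100 μL/min. Eluents were water and acetonitrile, each with 0.1% formic acid.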
Take `Cc1cc(Nc2cccc(C(C)O)c2)nc(-n2cc([N+](=O)[O-])cn2)n1` (stereo not drawn): the RP-LC retention time is 690 s.

For `COc1ccccc1CNC(=O)[C@@H]1[C@H](c2cc(OC)c(OC)c(OC)c2)c2cc3c(cc2[C@H](O)[C@H]1CO)OCO3`, the RP-LC retention time came to 713 s.

For the compound `O=S(=O)(c1cccc(-c2nnc(-c3ccccc3Br)o2)c1)N1CCCCC1`, the RP-LC retention time was determined as 1160 s.

`O=C(NCC1CC1)C1CCCN(c2nccn3nc(-c4ccccc4Cl)cc23)C1` (stereo not drawn) showed an RP-LC retention time of 816 s.

Consider `Cc1cccc(NC(=O)N2CCCC2c2cc(C(C)C)on2)c1` (stereo not drawn), for which the RP-LC retention time stood at 967 s.

Consider `Cc1cccc(-c2nc(Cn3nnc(-c4nc(-c5ccccc5Cl)no4)c3C)c(C)o2)c1`, for which the RP-LC retention time worked out at 908 s.

`COc1ccc(-c2noc(C3CCCN3C(=O)c3cc(F)ccc3F)n2)cc1` (stereo not drawn) displayed an RP-LC retention time of 968 s.

`COc1ccc(-c2nc(NCCN(C)C3CCCCC3)c3ccccc3n2)cc1` showed an RP-LC retention time of 592 s.

Compound `CC(C)NC(=O)N1CCCC(c2cccc(C(=O)NCCN3CCOCC3)c2)C1` (stereo not drawn) had an RP-LC retention time of 591 s.

With `CC(NC(=O)C1CC(=O)N(c2ccc3c(c2)CCN3C(=O)C2CC2)C1)c1ccccc1` (stereo not drawn), the RP-LC retention time was found to be 740 s.

Compound `COc1cccc(S(=O)(=O)N2CCC(c3noc(-c4cccc(F)c4)n3)CC2)c1` came in with an RP-LC retention time of 1110 s.

`CN(C)C1(CC2CC2)CCN(C(=O)c2cccs2)CC1` had an RP-LC retention time of 584 s.

In turn, `CCCC(=O)Nc1ccc2c(c1)CN(C(=O)c1ccc(Cl)cc1)C(C(=O)N(C)C)C2` (stereo not drawn) came in with an RP-LC retention time of 748 s.

Turning to `Cc1cc(N2CCN(c3ccccc3)CC2)nc2ccccc12`, the RP-LC retention time worked out at 710 s.

On to `COc1ccc(NC(=O)C2CCN(S(C)(=O)=O)c3cc(C)ccc3O2)cc1` (stereo not drawn), for which the RP-LC retention time was determined as 872 s.

As for `FC(F)(F)c1nc(N2CCN(C(c3ccccc3)c3ccccc3)CC2)nc2c1CCCCC2`, the RP-LC retention time came to 559 s.

Take `Cc1ccc(Cn2c(=O)c(N3CCN(C(=O)NCc4ccco4)CC3)nc3ccccc32)cc1`: the RP-LC retention time amounted to 1010 s.

`CCOC(=O)C(C)NC(=O)Nc1cc(F)c2nc(N3CCOCC3)ccc2c1` (stereo not drawn) registered an RP-LC retention time of 812 s.

In the case of `Fc1cccc(Cc2noc(-c3nc(-c4ccccc4F)no3)n2)c1`, the RP-LC retention time is 1130 s.

`COc1ccc(-c2ccnn2-c2ccc(SCc3ccc(F)cc3)nn2)cc1` came in with an RP-LC retention time of 738 s.

`CC(C)(C)c1noc(-c2ccnc(-n3cnc(C(=O)NC4CCCCC4)c3)c2)n1`: the RP-LC retention time worked out at 1100 s.

On to `Cc1cc(N2CCN(C(=O)c3ccc(Br)cc3)CC2)nc2nnc(C)n12`, for which the RP-LC retention time was determined as 563 s.

The compound `Cc1cccc2c(=O)n(C3CCN(S(=O)(=O)c4ccc(F)cc4F)CC3)cnc12` returned an RP-LC retention time of 904 s.

For `COC(=O)c1c(C)[nH]c(C(=O)N2CCC(CC(=O)N(C)Cc3ccco3)CC2)c1C`, the RP-LC retention time is 728 s.

Compound `Cc1c(Cl)cccc1NC(=O)NCC(c1cccnc1)c1cn(C)c2ccccc12` (stereo not drawn) came in with an RP-LC retention time of 773 s.

Compound `COc1ccccc1CNC(=O)Cn1c(=O)c2cc(-c3ccco3)nn2c2ncccc21` registered an RP-LC retention time of 797 s.

In turn, `CCOc1ccc(-c2nc(NC(=O)c3sc(C)nc3C)sc2C)cc1` registered an RP-LC retention time of 976 s.

For the compound `CCN(CC)S(=O)(=O)c1ccc2c(c1)CC(C(=O)NCCc1ccc(C)cc1)N2C(C)=O` (stereo not drawn), the RP-LC retention time was found to be 842 s.

With `CC(CNC(=O)c1nc(Cn2c(=O)oc3ccc(Cl)cc32)no1)c1ccccc1` (stereo not drawn), the RP-LC retention time came to 796 s.

`CC1CCCN(S(=O)(=O)c2cccc(-c3cn4cc(Cl)ccc4n3)c2)C1` (stereo not drawn) gave an RP-LC retention time of 999 s.

Turning to `COC(=O)C1=C(C)N(C2CCCC2)C(=O)C1(NC(=O)c1ccccc1OC)C(F)(F)F` (stereo not drawn), the RP-LC retention time worked out at 1070 s.

In turn, `CC1CCC2(CC1)NC(=O)N(CC(=O)N(C)c1ccccc1)C2=O` (stereo not drawn) came in with an RP-LC retention time of 805 s.

In the case of `COc1cc(CCNC(=O)c2c(N3CCCC3=O)c3cc(F)ccc3n2C)cc(OC)c1OC`, the RP-LC retention time was 762 s.

In the case of `NS(=O)(=O)c1ccc(CCNC(=O)C(=O)Nc2ccc(Cl)cn2)cc1`, the RP-LC retention time amounted to 695 s.

The compound `O=C(Nc1ccc2c(c1)N(C(=O)c1cccs1)CC2)c1c(F)cccc1Cl` showed an RP-LC retention time of 857 s.

Take `O=C(c1n[nH]c2ccccc12)N1CCC(c2noc(C3CC3)n2)C1` (stereo not drawn): the RP-LC retention time was found to be 720 s.

The compound `CCc1ccc(NC(=O)Cn2c(CC)nc3c(c2=O)CN(Cc2ccccc2)CC3)cc1` gave an RP-LC retention time of 710 s.

As for `CC(C)OCCCNC(=O)C1CC(=O)N(c2n[nH]c3cc(Br)ccc23)C1` (stereo not drawn), the RP-LC retention time came to 690 s.

`Cn1nc(-c2nc(C3CC3)no2)c2c1CCN(C(=O)c1ccccc1F)C2` displayed an RP-LC retention time of 805 s.

Compound `O=S(=O)(c1cccc(-c2cn3cc(Cl)ccc3n2)c1)N1CCCCCC1` yielded an RP-LC retention time of 944 s.

Take `Cc1ccccc1OCC(=O)NC1CCN(Cc2c(C)noc2C)CC1`: the RP-LC retention time came out at 615 s.

Turning to `CCOC(=O)c1cccc(NC2=NS(=O)(=O)C(c3ccc(OC)cc3)=C2C)c1`, the RP-LC retention time is 965 s.

`CNC(=O)c1cc(=O)[nH]c2ccc(F)cc12` registered an RP-LC retention time of 584 s.

With `CCc1ccc(CN2C(=O)C3(CCOCC3)CC2c2nnnn2C(C)(C)C)cc1` (stereo not drawn), the RP-LC retention time turned out to be 862 s.

For the compound `Brc1ccc(CSc2nnc(-c3ccccc3)o2)cc1`, the RP-LC retention time worked out at 1180 s.

The compound `Cc1ccc(N2C(=O)N3CCc4c([nH]c5ccccc45)C3(C)C2=O)cc1` (stereo not drawn) had an RP-LC retention time of 1020 s.

As for `COc1ccc(-c2noc(-c3nnn4c3COC(c3ccc(C)cc3C)C4)n2)c(OC)c1` (stereo not drawn), the RP-LC retention time is 1170 s.

Compound `O=S(=O)(NC1CCCC1)c1ccc(-c2cc(C(F)(F)F)on2)o1` gave an RP-LC retention time of 1060 s.

As to `O=C(Cc1c[nH]c2ccccc12)N1CCc2cc(-c3ccno3)ccc21`, the RP-LC retention time was found to be 825 s.

`O=C(NCCc1ccncc1)c1cnn(-c2ccccc2)n1`: the RP-LC retention time came out at 560 s.

For the compound `O=C(CN1CCCc2nc(C3CC3)ncc2C1=O)NCc1cccs1`, the RP-LC retention time came out at 682 s.

As to `Cc1ccc(-c2nc3n(CC(=O)NCC4CCCO4)c4c(c(=O)n3n2)CCC4)cc1` (stereo not drawn), the RP-LC retention time is 720 s.

In the case of `CN1C(=O)c2cc(C(=O)Nc3ccc(F)cc3F)nn2CC1(C)C(=O)NC1CCCCC1` (stereo not drawn), the RP-LC retention time is 732 s.

In the case of `COc1ccc(NC(=O)c2cn3c(n2)CSCC3)cc1OC`, the RP-LC retention time is 631 s.

Turning to `COc1cccc(-c2c(C(=O)O)nnn2-c2ccc3c(c2)OCO3)c1`, the RP-LC retention time came to 743 s.

The compound `O=C(NCc1ccco1)c1cc2c(=O)n(Cc3ccccc3)ccc2s1` registered an RP-LC retention time of 822 s.

Take `CCOC(=O)C1CCN(C(=O)c2cn(-c3cc(N4CCC(C)CC4)ncn3)cn2)CC1`: the RP-LC retention time was found to be 941 s.

`Cc1cc(N2CCN(C(=O)c3ccc(Br)o3)CC2)nc(N2CCOCC2)n1` came in with an RP-LC retention time of 599 s.

Regarding `Cc1cc(N2CCN(C(=O)c3ccc(N(C)C)cc3)CC2)nc2nnc(C)n12`, the RP-LC retention time was determined as 579 s.

In the case of `Cc1ccc2c(c1)OCC(=O)N2Cc1nc(-c2ccc(C)c(C)c2)no1`, the RP-LC retention time is 1160 s.

As to `O=C(Nc1ccccc1F)[C@@H]1COCC(=O)N1Cc1cccs1`, the RP-LC retention time is 741 s.

Regarding `COC(=O)c1ccc(NC(=O)C2CCN(S(=O)(=O)c3c(C)nn(-c4ccccc4)c3C)CC2)cc1`, the RP-LC retention time worked out at 955 s.

For the compound `Cc1cn(C)nc1C(=O)N(CCN1CCOCC1)c1nc2c(C)ccc(C)c2s1`, the RP-LC retention time turned out to be 648 s.

With `Cc1cnc(C(=O)N[C@@H]2CCC[C@@H]2C(=O)NC2CCCCCC2)cn1`, the RP-LC retention time came to 735 s.

Turning to `COC(=O)c1ccccc1S(=O)(=O)N1CCc2c(c(-c3nnc(-c4ccccc4)o3)nn2C)C1`, the RP-LC retention time came out at 907 s.

Compound `Cc1ccc2[nH]c(=O)c(CCC(=O)N3CCN(c4ncccn4)CC3)cc2c1` displayed an RP-LC retention time of 686 s.

Compound `O=C(NCc1cc(F)cc(F)c1)C1CCN(c2cncnc2N2CCCCC2)CC1` registered an RP-LC retention time of 700 s.

Compound `CCc1ccc(-c2noc(Cn3c(=O)n(-c4cccc(C)c4)c(=O)c4sccc43)n2)cc1` displayed an RP-LC retention time of 1150 s.

Compound `CCc1cccc(NC(=O)Cn2c(N)nc(C)cc2=O)c1` registered an RP-LC retention time of 618 s.

Consider `Cc1cccc(NS(=O)(=O)c2cc(-c3cc(C(F)(F)F)on3)sc2C)c1C`, for which the RP-LC retention time was found to be 1240 s.

`CC1Cc2ccccc2N1C(=O)c1ccc(=O)n(CCC(=O)NC2CCCCCCC2)n1` (stereo not drawn) returned an RP-LC retention time of 895 s.

Compound `CCc1nnc(-c2ccc3ccn(CC(=O)N4CCN(c5ccc(OC)cc5)CC4)c3c2)o1` registered an RP-LC retention time of 784 s.

As to `CCc1nccn1Cc1nc(-c2ccc(F)c(Cl)c2)no1`, the RP-LC retention time was 669 s.

For the compound `Cn1cccc1Cc1nnc(SCC(=O)N2CCCc3ccccc32)n1C`, the RP-LC retention time was 767 s.

Compound `COc1ccc(NC(=O)Nc2nccn(-c3ccc(C(C)C)cc3)c2=O)cc1OC` returned an RP-LC retention time of 1010 s.

The compound `COc1cccc(NC(=O)N2CCN(c3cnn4c(C)nnc4c3)CC2)c1` had an RP-LC retention time of 616 s.

For the compound `Cc1nc(-c2ccc3c(c2)n(CC(=O)NC2CCC(C)CC2)c(=O)n3C(C)C)no1` (stereo not drawn), the RP-LC retention time turned out to be 897 s.

In turn, `COc1ccc(S(=O)(=O)NCC2Cn3cccc3C(=O)N2C)cc1` (stereo not drawn) had an RP-LC retention time of 687 s.
